Patent US7700782B2, “Compounds 569” (AstraZeneca AB, priority 2007, dated 2010)
Where a name gives a salt, the structure may show the parent alone.

Molecular target: T1, Adrenergic β2 (Homo sapiens, UniProt P07550)
T1 construct: Adherent H292 cells were removed from tissue culture flasks; endogenous in cells; host or cells: H292 cells
Experiment: Adrenergic β2 mediated cAMP production in H292 cells (AlphaScreen cAMP detection)
Format: cell-based
Conditions: Intrinsic Activity, fraction relative to the maximum activity determined for formoterol
Method: Adrenergic β2 Mediated cAMP Production
H292 cells were grown in 225 cm2 flasks incubator at 37° C., 5% CO2 in RPMI medium containing, 10% (v/v) FBS (foetal bovine serum) and 2 mM L-glutamine.
Adherent H292 cells were removed from tissue culture flasks by treatment with Accutase™ cell detachment solution for 15 minutes. Flasks were incubated for 15 minutes in a humidified incubator at 37° C., 5% CO2. Detached cells were re-suspended in RPMI media (containing 10% (v/v) FBS and 2 mM L-glutamine) at 0.05×10^6 cells per mL. 5000 cells in 100 μL were added to each well of a tissue-culture-treated 96-well plate and the cells incubated overnight in a humidified incubator at 37° C., 5% CO2. The culture media was removed and cells were washed twice with 100 μL assay buffer and replaced with 50 μL assay buffer (HBSS solution containing 10 mM HEPES pH 7.4 and 5 mM glucose). Cells were rested at room temperature for 20 minutes after which time 25 μL of rolipram (1.2 mM made up in assay buffer containing 2.4% (v/v) dimethylsulphoxide) was added. Cells were incubated with rolipram for 10 minutes after which time test compounds were added and the cells were incubated for 60 minutes at room temperature. The final rolipram concentration in the assay was 300 μM and final vehicle concentration was 1.6% (v/v) dimethylsulphoxide. The reaction was stopped by removing supernatants, washing once with 100 μL assay buffer and replacing with 50 μL lysis buffer. The cell monolayer was frozen at −80° C. for 30 minutes (or overnight).
The concentration of cAMP (cyclic adenosine monophosphate) in the cell lysate was determined using AlphaScreen™ methodology. The frozen cell plate was thawed for 20 minutes on a plate shaker then 10 μL of the cell lysate was transferred to a 96-well white plate. 40 μL of mixed AlphaScreen™ detection beads pre-incubated with biotinylated cAMP, was added to each well and the plate incubated at room temperature for 10 hours in the dark. The AlphaScreen™ signal was measured using an EnVision spectrophotometer (Perkin-Elmer Inc.) with the recommended manufacturer's settings. cAMP concentrations were determined by reference to a calibration curve determined in the same experiment using standard cAMP concentrations. Concentration response curves for agonists were constructed and data was fitted to a four parameter logistic equation to determine both the pEC50 and Intrinsic Activity. Intrinsic Activity was expressed as a fraction relative to the maximum activity determined for formoterol in each experiment.

T1 sequence (P07550 whole entry): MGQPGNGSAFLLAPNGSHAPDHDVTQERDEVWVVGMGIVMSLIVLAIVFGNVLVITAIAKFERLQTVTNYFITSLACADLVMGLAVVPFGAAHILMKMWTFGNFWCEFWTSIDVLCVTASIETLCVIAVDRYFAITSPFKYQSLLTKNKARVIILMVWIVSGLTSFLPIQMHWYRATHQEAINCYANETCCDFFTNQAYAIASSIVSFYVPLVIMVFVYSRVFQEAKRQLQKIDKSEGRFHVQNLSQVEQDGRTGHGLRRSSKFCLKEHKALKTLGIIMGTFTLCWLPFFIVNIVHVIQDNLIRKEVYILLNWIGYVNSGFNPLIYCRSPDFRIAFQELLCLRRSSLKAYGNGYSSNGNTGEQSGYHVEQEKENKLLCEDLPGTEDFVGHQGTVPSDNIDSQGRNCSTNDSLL

Compound | β2 Int Act
O=C(CCNCCc1ccc(Cl)c(Cl)c1)N(CCNCCc1ccc(O)c2[nH]c(=O)sc12)C1CCOCC1 [Example 24, N^3-[2-(3,4-Dichlorophenyl)ethyl]-N-(2-{[2-(4-hydroxy-2-oxo-2,3-dihydro-1,3-benzothiazol-7-yl)ethyl]amino}ethyl)-N-(tetrahydro-2H-pyran-4-yl)-β-alaninamide bis-trifluoroacetic acid salt] | 0.77
C[C@H](CNCCC(=O)N(CCNCCc1ccc(O)c2[nH]c(=O)sc12)C1CCCC1)c1ccccc1 [Example 31, N-cyclopentyl-N-(2-{[2-(4-hydroxy-2-oxo-2,3-dihydro-1,3-benzothiazol-7-yl)ethyl]amino}ethyl)-N^3-[(2S)-2-phenylpropyl]-β-alaninamide bis-trifluoroacetic acid salt] | 0.92
CC(C)(CNCCC(=O)N(CCNCCc1ccc(O)c2[nH]c(=O)sc12)C1CCCC1)c1ccccc1 [Example 32, N-cyclopentyl-N-(2-{[2-(4-hydroxy-2-oxo-2,3-dihydro-1,3-benzothiazol-7-yl)ethyl]amino}ethyl)-N^3-(2-methyl-2-phenylpropyl)-β-alaninamide bis-trifluoroacetic acid salt] | 0.67
O=C(CCNCCc1ccc(O)cc1)N(CCNCCc1ccc(O)c2[nH]c(=O)sc12)C1CCCCC1 [Example 34, N-Cyclohexyl-N-(2-{[2-(4-hydroxy-2-oxo-2,3-dihydro-1,3-benzothiazol-7-yl)ethyl]amino}ethyl)-N^3-[2-(4-hydroxyphenyl)ethyl]-β-alaninamide bis-trifluoroacetic acid salt] | 0.75
O=C(CCNCCc1cccc(F)c1)N(CCNCCc1ccc(O)c2[nH]c(=O)sc12)C1CCCCCC1 [Example 36, N-Cycloheptyl-N^3-[2-(3-fluorophenyl)ethyl]-N-(2-{[2-(4-hydroxy-2-oxo-2,3-dihydro-1,3-benzothiazol-7-yl)ethyl]amino}ethyl)-β-alaninamide bis-trifluoroacetic acid salt] | 0.84
O=C(CCNCCc1cccc(O)c1)N(CCNCCc1ccc(O)c2[nH]c(=O)sc12)C1CCCCCC1 [Example 37, N-Cycloheptyl-N-(2-{[2-(4-hydroxy-2-oxo-2,3-dihydro-1,3-benzothiazol-7-yl)ethyl]amino}ethyl)-N^3-[2-(3-hydroxyphenyl)ethyl]-β-alaninamide bis-trifluoroacetic acid salt] | 0.91
CC(C)(C)CN(CCNCCc1ccc(O)c2[nH]c(=O)sc12)C(=O)CCNC(C)(C)Cc1ccccc1 [Example 38, N^3-(1,1-Dimethyl-2-phenylethyl)-N-(2,2-dimethylpropyl)-N-(2-{[2-(4-hydroxy-2-oxo-2,3-dihydro-1,3-benzothiazol-7-yl)ethyl]amino}ethyl)-β-alaninamide bis-trifluoroacetic acid salt] | 0.42
CC(=O)OCC(C)(C)CN(CCNCCc1ccc(O)c2[nH]c(=O)sc12)C(=O)CCNCCc1ccc(Cl)cc1 [Example 39, 3-[{N-[2-(4-Chlorophenyl)ethyl]-β-alanyl}(2-{[2-(4-hydroxy-2-oxo-2,3-dihydro-1,3-benzothiazol-7-yl)ethyl]amino}ethyl)amino]-2,2-dimethylpropyl acetate diacetic acid salt] | 0.58
CC(C)(CO)CN(CCNCCc1ccc(O)c2[nH]c(=O)sc12)C(=O)CCNCCc1ccc(Cl)cc1 [Example 40, N^3-[2-(4-Chlorophenyl)ethyl]-N-(3-hydroxy-2,2-dimethylpropyl)-N-(2-{[2-(4-hydroxy-2-oxo-2,3-dihydro-1,3-benzothiazol-7-yl)ethyl]amino}ethyl)-β-alaninamide diacetic acid salt] | 0.64
O=C(CCNCCc1ccccc1)N(CCNCCc1ccc(O)c2[nH]c(=O)sc12)C1Cc2ccccc2C1 [Example 41, N^1-(2,3-Dihydro-1H-inden-2-yl)-N^1-(2-{[2-(4-hydroxy-2-oxo-2,3-dihydro-1,3-benzothiazol-7-yl)ethyl]amino}ethyl)-N^3-(2-phenylethyl)-β-alaninamide bis-trifluoroacetic acid salt] | 0.99
O=C(CCNCCc1cccc(Cl)c1)N(CCNCCc1ccc(O)c2[nH]c(=O)sc12)C1Cc2ccccc2C1 [Example 42, N^3-[2-(3-Chlorophenyl)ethyl]-N^1-(2,3-dihydro-1H-inden-2-yl)-N^1-(2-{[2-(4-hydroxy-2-oxo-2,3-dihydro-1,3-benzothiazol-7-yl)ethyl]amino}ethyl)-β-alaninamide bis-trifluoroacetic acid salt] | 0.82

Results, then the compound that gave them:

β2 Int Act | Compound
0.83 | O=C(CCNCCc1ccc(Cl)cc1)N(CCNCCc1ccc(O)c2[nH]c(=O)sc12)C1CCOCC1 [Example 26, N^3-[2-(4-Chlorophenyl)ethyl]-N-(2-{[2-(4-hydroxy-2-oxo-2,3-dihydro-1,3-benzothiazol-7-yl)ethyl]amino}ethyl)-N-(tetrahydro-2H-pyran-4-yl)-β-alaninamide bis-trifluoroacetic acid salt]
0.95 | Cc1ccccc1CCNCCC(=O)N(CCNCCc1ccc(O)c2[nH]c(=O)sc12)C1CCOCC1 [Example 27, N-(2-{[2-(4-Hydroxy-2-oxo-2,3-dihydro-1,3-benzothiazol-7-yl)ethyl]amino}ethyl)-N^3-[2-(2-methylphenyl)ethyl]-N-(tetrahydro-2H-pyran-4-yl)-β-alaninamide bis-trifluoroacetic acid salt]
0.87 | O=C(CCNCCc1ccc(Cl)cc1)N(CCNCCc1ccc(O)c2[nH]c(=O)sc12)C1CCCC1 [Example 28, N^3-[2-(4-Chlorophenyl)ethyl]-N-cyclopentyl-N-(2-{[2-(4-hydroxy-2-oxo-2,3-dihydro-1,3-benzothiazol-7-yl)ethyl]amino}ethyl)-β-alaninamide bis-trifluoroacetic acid salt]
0.97 | O=C(CCNCCc1ccccc1Cl)N(CCNCCc1ccc(O)c2[nH]c(=O)sc12)C1CCCC1 [Example 29, N^3-[2-(2-Chlorophenyl)ethyl]-N-cyclopentyl-N-(2-{[2-(4-hydroxy-2-oxo-2,3-dihydro-1,3-benzothiazol-7-yl)ethyl]amino}ethyl)-β-alaninamide bis-trifluoroacetic acid salt]
0.96 | O=C(CCNCCc1cccc(Cl)c1)N(CCNCCc1ccc(O)c2[nH]c(=O)sc12)C1CCCC1 [Example 30, N^3-[2-(3-Chlorophenyl)ethyl]-N-cyclopentyl-N-(2-{[2-(4-hydroxy-2-oxo-2,3-dihydro-1,3-benzothiazol-7-yl)ethyl]amino}ethyl)-β-alaninamide bis-trifluoroacetic acid salt]
0.78 | O=C(CCNCCc1ccccn1)N(CCNCCc1ccc(O)c2[nH]c(=O)sc12)C1CCCCC1 [Example 33, N-Cyclohexyl-N-(2-{[2-(4-hydroxy-2-oxo-2,3-dihydro-1,3-benzothiazol-7-yl)ethyl]amino}ethyl)-N^3-(2-pyridin-2-ylethyl)-β-alaninamide bis-trifluoroacetic acid salt]
0.91 | O=C(CCNCCc1cccs1)N(CCNCCc1ccc(O)c2[nH]c(=O)sc12)C1CCCCC1 [Example 35, N-Cyclohexyl-N-(2-{[2-(4-hydroxy-2-oxo-2,3-dihydro-1,3-benzothiazol-7-yl)ethyl]amino}ethyl)-N^3-[2-(2-thienyl)ethyl]-β-alaninamide bis-trifluoroacetic acid salt]
